Assays:
[1] = test system: col6a1 zebrafish morphants; assay: Touch-evoked escape response in col6a1 zebrafish morphants; type: in vivo; conditions: 48 hpf, 27 hours of treatment, 0.1, 1 and 10 μm
Description: (§1) Zebrafish embryos were injected with col6a1 morpholino at the 1-cell stage, dechorionated at 20 hpf and treated at 21 hpf with 0.1, 1 or 10 μm of either TR001 or 63. DMSO-treated embryos injected with a scrambled morpholino were used as a control. […] It should be noted that in these protocols, embryos were exposed to drugs for a longer period of time than in the spontaneous coiling experiments. This difference may help to explain why TR001 was as effective at 0.1 μm as it was at 1 and 10 μm.
Morpholino antisense injection and treatment. Knock-down of col6a1 gene expression was obtained with a previously published morpholino ^[25] with sequence GAGAGCGGAAGACGAACCTTCATTC (SEQ ID NO: 2; GeneTools, Inc.). A control morpholino with no sequence homology in the zebrafish genome was used in parallel (CCTCTTACCTCAGTTACAATTTATA; SEQ ID NO: 3). Zebrafish eggs from wild-type matings were injected at the 1-2 cell stage with approximately 10 nL of 0.1 mm morpholino solution (corresponding to 4 ng of morpholino) using a WPI pneumatic PicoPump PV820 injector (World Precision Instruments, Inc.). Zebrafish embryos were dechorionated at 20 hours post fertilization (hpf) and treated at 21 hpf with increasing doses (0.1, 1 and 10 μm) of both TR001 and 63 compounds dissolved in fish water with 1% DMSO (vehicle).
Motor activity. The number of spontaneous coiling events performed in 15 seconds by single zebrafish embryos was recorded at 24 hpf by light microscopy. Touch-evoked escape responses were recorded at 48 hpf by observing the ability of zebrafish embryos to escape after a tail-touch with a little tip. Embryos were subdivided in 4 groups according to the observed phenotype: paralyzed embryos, score 0; underdeveloped embryos showing only coiling events, score 1; embryos showing lower motility, score 2; normal embryos, score 3.

[2] = test system: isolated mouse liver mitochondria; assay: Oxygen consumption rate of isolated mitochondria (Seahorse XF24); type: biochemical
Excerpt: (§2) A thorough evaluation of toxicity is critical for advancing TR001 to in vivo studies. […] To more thoroughly examine mitochondrial toxicity, we analyzed oxygen consumption rates (OCRs) using the Seahorse XF24 extracellular flux analyzer. This allowed us to assess the effects of TR001 on mitochondrial respiration and ATP synthesis. […] Consequently respiratory control ratios (i.e., the ratios between ADP-stimulated and basal respiration) were not affected across the concentrations tested (FIG. 5B). Complex III inhibitor antimycin A shuts down the electron transport chain at the bc1 complex and was used to account for oxygen leak.
(§3) Measurement of respiration. Mitochondrial oxygen consumption of isolated mitochondria or HeLa cell monolayer was assessed with the Seahorse Extracellular Flux Analyzer XF24 (Seahorse Bioscience, Billerica, MA, USA). Isolated mouse liver mitochondria: Mitochondrial assay solution contained 220 mm mannitol, 70 mm sucrose, 25 mm MOPS-Tris, 10 mm Pi-Tris, 5 mm MgCl2, 1 mm EGTA-Tris, 0.2% fatty acid free BSA, 5 mm succinate and 2 μm rotenone, pH 7.4. Mitochondria (5 μg, suspended in 50 μL mitochondrial assay solution) were added to each well of an XF24 cell culture microplate, centrifuged at 2000 g for 20 min at 4° C. and then supplemented with 450 μL of mitochondrial assay solution containing 4 mm ADP to initiate the experiments.

[3] = test system: inner mitochondrial membrane potential; assay: Rhodamine 123 (Rh123) uptake, mitochondrial membrane potential of isolated mouse liver mitochondria; type: biochemical
Excerpt: We next evaluated the mitochondrial toxicity of the new triazole analogs by testing their ability to interfere with accumulation of the membrane-permeant cationic fluorescent dye rhodamine 123 (Rh123). The mitochondrial uptake of positively charged Rh123 is driven by the inside negative IMM potential, which is built by the respiratory chain or maintained by ATP hydrolysis if certain conditions are met. […] It should be noted, however, that toxicity for these compounds only occurs at ˜10-1000-fold higher concentrations compared to mtPTP inhibition, providing a good therapeutic window.
Assessment of mitochondrial membrane potential. Mitochondrial membrane potential—to evaluate toxicity—of isolated mouse liver mitochondria was assessed based on fluorescence quenching of the cationic fluorescent dye Rh123 upon its accumulation into mitochondrial matrix due to inside negative membrane potential. Compounds that interfere with the build-up or maintenance of IMM potential would shift Rh123 fluorescence to higher values compared to DMSO treated samples. Uncoupler FCCP was used to account for nonspecific fluorescence. First, 0.1 mL of SAB was dispensed to a 96-well black assay plate. A set of wells also contained 0.8 μm FCCP (to prevent Rh123 uptake). The test wells contained a range of concentrations (in 1:2 serial dilutions) of the compounds of interest or 2% DMSO. Then, 0.1 mL of 0.5 mg/mL mitochondria in SAB devoid of respiratory substrates but supplemented with 0.8 μm Rh123 were added to all wells of the assay plate. Fluorescence intensity (ex/em 485/535 nm) was read on a Tecan Infinite F200 plate reader for 7 min and value at 5 min was considered for analysis. EC50s±SE were determined with OriginPro software by applying Hill1 function fitting algorithm on average concentration response data of n=3 independent preparations.

HeLa cells [4] = assay: HeLa cell viability assay; type: cell-based; conditions: up to 50 μm, 24 h treatment
Excerpt: as §2
Cell viability assay. HeLa cells were seeded at a density of 10^4 per well in 96-well plates and let to adhere for 6 h before treatment with varying concentrations of TR001 or vehicle (1% DMSO. After treatment for 24 h the relative viable cell number was determined with a CellTiter 96 Aqueous One Solution Cell Proliferation Assay Kit (Promega).

HeLa cells [5] = assay: Oxygen consumption rate of HeLa cell monolayers (Seahorse XF24); type: cell-based; conditions: ~2 h treatment
Excerpt: as §2
as §3, with “experiments. […]” for “experiments.”

[6] = test system: col6a1 zebrafish morphants; assay: Spontaneous coiling events in col6a1 zebrafish morphants; type: in vivo; conditions: 24 hpf, 3 hours of treatment, 0.1, 1 or 10 μm
Description: as §1
Morpholino antisense injection and treatment. Knock-down of col6a1 gene expression was obtained with a previously published morpholino ^[25] with sequence GAGAGCGGAAGACGAACCTTCATTC (SEQ ID NO: 2; GeneTools, Inc.). A control morpholino with no sequence homology in the zebrafish genome was used in parallel (CCTCTTACCTCAGTTACAATTTATA; SEQ ID NO: 3). […]
Motor activity. The number of spontaneous coiling events performed in 15 seconds by single zebrafish embryos was recorded at 24 hpf by light microscopy. Touch-evoked escape responses were recorded at 48 hpf by observing the ability of zebrafish embryos to escape after a tail-touch with a little tip. […]

Cc1ccc(Cl)cc1NC(=O)c1cn(-c2ccc(F)c(O)c2)nn1 [TR001, N-(5-chloro-2-methylphenyl)-1-(4-fluoro-3-hydroxyphenyl)-1H-1,2,3-triazole-4-carboxamide]
touch-evoked escape response (motility) [1]: improved
rates of oxygen consumption (ADP stimulation, oligomycin, FCCP) [2]: no effect
respiratory control ratios ([2]; across the concentrations tested): not affected
interference with buildup of IMM potential (in words) ([3]; Rh123 uptake assay): did not interfere with IMM potential
EC50 ([3]; interference with Rh123 uptake to mitochondria, average ± SEM, n = 3, read-out: Rh123 uptake EC50): > 40 µM
HeLa cell viability (HeLa cells [4]): did not exhibit any adverse effects
mitochondrial dysfunction (OCR) in intact cells (HeLa cells [5]): did not cause mitochondrial dysfunction
spontaneous coiling events [6]: partially rescued the defect

— patent US12398110B2, “Second generation inhibitors of mitochondrial permeability transition pore with improved plasma stability” (Oregon Health & Science University, priority 2019, dated 2025)
